Key:
[1] = Metabolic stability in human liver microsomes; type: in vitro ADME; details: human liver microsomes 0.5 mg/mL, NADPH and UDPGA, 37° C., read-out: In vitro t1/2
Description: FIG. 1. Metabolic stability of compounds in human liver microsomal incubations. […] Concentrations at specified times were determined by LC-MS/MS.
The incubation reactions at various time points were quenched by adding 2× volumes of acetonitrile containing 100 nM reserpine. The quenched incubation samples were centrifuged at 4000 RPM for 10 min, and the supernatants injected for LC/MS/MS analysis. LC/MS/MS analysis was carried out on a AB Sciex 4000 Q Trap LC/MS/MS system coupled with Shimadzu Prominence UFLCXR 20 series (including a CBM-20A controller, two LC-20ADXR solvent delivery units, SIL-20AC HT autosampler, CTO-20A column oven, and a SPD-20A UV detector).

[2] = Lung tissue and plasma concentration ratios; type: in vivo, CD-1 mouse; details: mice, single oral dose 5 mg/kg, dosed together with dasatinib, all time points
Description: CD-1 mouse (approximate weight 30 g, N=3) were dosed by oral gavage at 10 mL/kg. Blood samples were collected into tubes containing EDTA as the anticoagulant at 1, 2, 4, 10 h post-dosing for Compound X, and predose, 1, 2, 3, 8, 10 and 24 h post-dosing for Compound XI. The plasma samples were prepared by centrifugation. Lung samples were also collected at each of the above time points. The lung samples were homogenated in 4× distilled water (v/w). The plasma samples and the homogenated lung tissue samples were mixed with 3× volumes of acetonitrile containing 100 nM reserpine as the internal standard, and centrifuged at 4000 RPM for 15 min. The supernatants were injected for LC/MS analysis which were carried out on a AB Sciex 4000 Q Trap LC/MS/MS system coupled with Shimadzu Prominence UFLCXR 20 series (including a CBM-20A controller, two LC-20ADXR solvent delivery units, SIL-20AC HT autosampler, CTO-20A column oven, and a SPD-20A UV detector). The samples were separated on a Phenomenex Columbus column (C18, 4 μm, 50×2 mm) eluted with two solvent systems: 2 mM ammonium acetate in water containing 0.1% formic acid (A) and methanol (B) at a linear gradient starting at 25%. Electrospray ionization in positive mode was used to acquire LC/MS/MS data.

SMILES | half-life at 1 μM [1] [h] | ratio of lung tissue concentration to plasma concentration, compared to dasatinib [2]
[2H]c1cc(C)c(NC(=O)c2cnc(Nc3cc(N4CCCCC4)nc(C)n3)s2)c(Cl)c1 [Compound I, N-(2-chloro-4-deuterio-6-methyl-phenyl)-2-[[2-methyl-6-(1-piperidyl)pyrimidin-4-yl]amino]thiazole-5-carboxamide] | 4.68 | 
Cc1nc(Nc2ncc(C(=O)Nc3c(C)cccc3Cl)s2)cc(N2CC[C@@H](O)C2)n1 [Compound XI, N-(2-chloro-6-methylphenyl)-2-[[2-methyl-6-((R)-3-hydroxypyrrolidin-1-yl)pyrimidin-4-yl]amino]thiazole-5-carboxamide] |  | significantly lower ratios
Cc1nc(Nc2ncc(C(=O)Nc3c(C)cccc3Cl)s2)cc(N2CC[C@H](O)C2)n1 [Compound X, N-(2-chloro-6-methylphenyl)-2-[[2-methyl-6-((S)-3-hydroxypyrrolidin-1-yl)pyrimidin-4-yl]amino]thiazole-5-carboxamide] |  | significantly lower ratios

Reference: US11236080B2, “Protein kinase inhibitors” (Princeton Drug Discovery Inc, priority 2016, dated 2022)
